Experimental data published in PubChem BioAssay (NCI).
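All cell lines were grown in 96-well plates and treated with compound for 48 hours. At the GI50, growth is halved. TGI marks complete inhibition of growth.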

Experiments:
Experiment in all cases: NCI tumour cell line growth inhibition, 48 h
786-0 renal = system: 786-0 renal
A498 renal = system: A498 renal
A549 NSCLC = system: A549 NSCLC
ACHN renal = system: ACHN renal
BT-549 breast = system: BT-549 breast
CAKI-1 renal = system: CAKI-1 renal
CCRF-CEM leukemia = system: CCRF-CEM leukemia
COLO 205 colon = system: COLO 205 colon
DU-145 prostate = system: DU-145 prostate
EKVX NSCLC = system: EKVX NSCLC
HCC-2998 colon = system: HCC-2998 colon
HCT-116 colon = system: HCT-116 colon
HCT-15 colon = system: HCT-15 colon
HL-60(TB) leukemia = system: HL-60(TB) leukemia
HOP-62 NSCLC = system: HOP-62 NSCLC
HOP-92 NSCLC = system: HOP-92 NSCLC
HS 578T breast = system: HS 578T breast
HT29 colon = system: HT29 colon
IGROV1 ovarian = system: IGROV1 ovarian
K-562 leukemia = system: K-562 leukemia
KM12 colon = system: KM12 colon
LOX IMVI melanoma = system: LOX IMVI melanoma
M14 melanoma = system: M14 melanoma
MALME-3M melanoma = system: MALME-3M melanoma
MCF7 breast = system: MCF7 breast
MDA-MB-231 breast = system: MDA-MB-231 breast
MDA-MB-435 = system: MDA-MB-435
MOLT-4 leukemia = system: MOLT-4 leukemia
NCI-H226 lung = system: NCI-H226 lung

CN(c1ccc(Cl)c(Cl)c1)c1cnc2cc(N)cc(N)c2n1
GI50 (786-0 renal): 12.7 µM | TGI (786-0 renal): 26 µM | GI50 (A498 renal): 17.6 µM | TGI (A498 renal): 32.3 µM | GI50 (A549 NSCLC): 13.7 µM | TGI (A549 NSCLC): 45.4 µM | GI50 (ACHN renal): 4.64 µM | TGI (ACHN renal): 16 µM | GI50 (BT-549 breast): 2.73 µM | TGI (BT-549 breast): 6.56 µM | GI50 (CAKI-1 renal): 4.08 µM | TGI (CAKI-1 renal): 17.6 µM | GI50 (CCRF-CEM leukemia): 2.64 µM | TGI (CCRF-CEM leukemia): 8.7 µM | GI50 (COLO 205 colon): 1.79 µM | TGI (COLO 205 colon): 3.47 µM | GI50 (DU-145 prostate): 2.74 µM | TGI (DU-145 prostate): 7.34 µM | GI50 (EKVX NSCLC): 3.63 µM | TGI (EKVX NSCLC): 11.2 µM | GI50 (HCC-2998 colon): 11.5 µM | TGI (HCC-2998 colon): 24.5 µM | GI50 (HCT-116 colon): 2.31 µM | TGI (HCT-116 colon): 4.9 µM | GI50 (HCT-15 colon): 4.57 µM | TGI (HCT-15 colon): 20.1 µM | GI50 (HL-60(TB) leukemia): 2.26 µM | TGI (HL-60(TB) leukemia): 7.56 µM | GI50 (HOP-62 NSCLC): 2.91 µM | TGI (HOP-62 NSCLC): 8.07 µM | GI50 (HOP-92 NSCLC): 13.1 µM | TGI (HOP-92 NSCLC): 33.4 µM | GI50 (HS 578T breast): 2.66 µM | TGI (HS 578T breast): 7.36 µM | GI50 (HT29 colon): 4.07 µM | TGI (HT29 colon): 22 µM | GI50 (IGROV1 ovarian): 5.27 µM | TGI (IGROV1 ovarian): 60.2 µM | GI50 (K-562 leukemia): 4.21 µM | TGI (K-562 leukemia): > 100 µM | GI50 (KM12 colon): 7.2 µM | TGI (KM12 colon): 25.8 µM | GI50 (LOX IMVI melanoma): 1.84 µM | TGI (LOX IMVI melanoma): 3.74 µM | GI50 (M14 melanoma): 1.91 µM | TGI (M14 melanoma): 3.44 µM | GI50 (MALME-3M melanoma): 2.19 µM | TGI (MALME-3M melanoma): 4.28 µM | GI50 (MCF7 breast): 2.03 µM | TGI (MCF7 breast): 4.93 µM | GI50 (MDA-MB-231 breast): 3.37 µM | TGI (MDA-MB-231 breast): 15.4 µM | GI50 (MDA-MB-435): 1.91 µM | TGI (MDA-MB-435): 3.99 µM | GI50 (MOLT-4 leukemia): 3.81 µM | TGI (MOLT-4 leukemia): > 100 µM | GI50 (NCI-H226 lung): 15.1 µM
